Eleven compounds from ChEMBL document CHEMBL4819127, “Syntheses and antimicrobial activities of ogipeptin derivatives” (Bioorg Med Chem Lett, 2021) can be followed below.

As a reminder, the CC50 is the concentration that lowers cell viability or growth by half. Lower therefore signals harm at low concentration. In general, MIC refers to the lowest concentration found to suppress growth. Usually logD stands for lipophilicity at a set pH, counting ionised and neutral species. Low values mean lower lipophilicity, high ones higher lipophilicity.

Values after ≈ are worked out from the molar mass of the structure shown. Active and inactive are the calls of the source. No cut-off for these calls is given here.

In one data set the test system is HEK293. In words: (§1) Cytotoxicity against HEK293 cells. The format is cell-based. The settings on record: human, hek293.
Another data set has as its system Acinetobacter. Kind of data set: Antibacterial activity against Acinetobacter sp. The format is functional, organism-based.
The subject of data set [1] is Pseudomonas aeruginosa. In words: Antibacterial activity against multidrug resistance Pseudomonas aeruginosa. The format is functional, organism-based.
Data set [2] deals with Escherichia coli. Kind of data set: Antibacterial activity against Escherichia coli. The format is functional, organism-based.
For data set [3], the system named is Klebsiella pneumoniae. In words: Antibacterial activity against Klebsiella pneumoniae. The format is functional, organism-based.
Data set [4] deals with Pseudomonas aeruginosa. Kind of data set: Antibacterial activity against Pseudomonas aeruginosa ATCC 15692 assessed as bacterial growth inhibition. The format is functional.
Another data set relates to HepG2. Kind of data set: Cytotoxicity against human HepG2 cells. The format is functional.
The nature of data set [5]: Lipophilicity, logD of compound. The settings on record: octanol/water. The format is physicochemical.
For data set [6], the system named is Pseudomonas aeruginosa. Kind of data set: Antibacterial activity against Pseudomonas aeruginosa ATCC 27853 assessed as bacterial growth inhibition. The format is functional.
A short description of data set [7]: as §1. The format is cell-based. The settings on record: human, HEK293 cells.
Data set [8] has as its system Escherichia coli. In words: Antibacterial activity against Escherichia coli ATCC 47076 assessed as bacterial growth inhibition. The format is functional.
The test system of data set [9] is Klebsiella pneumoniae. In words: Antibacterial activity against Klebsiella pneumoniae JCM 1662 assessed as bacterial growth inhibition. The format is functional.
Data set [10] concerns Klebsiella pneumoniae. In words: Antibacterial activity against Klebsiella pneumoniae IHMA 1387833 assessed as bacterial growth inhibition. The format is functional.
The test system of data set [11] is Pseudomonas aeruginosa. In words: Antibacterial activity against Pseudomonas aeruginosa IHMA 1375891 assessed as bacterial growth inhibition. The format is functional.
Data set [12] relates to Acinetobacter baumannii. In words: Antibacterial activity against Acinetobacter baumannii IHMA 1312713 assessed as bacterial growth inhibition. The format is functional.
Data set [13] concerns Acinetobacter baumannii. In words: Antibacterial activity against Acinetobacter baumannii ATCC 19606 assessed as bacterial growth inhibition. The format is functional. The settings on record: ATCC 19606 = CIP 70.34 = JCM 6841.
Data set [14] relates to Klebsiella pneumoniae. Kind of data set: Antibacterial activity against Klebsiella pneumoniae ATCC 10031 assessed as bacterial growth inhibition. The format is functional.
The subject of data set [15] is Klebsiella pneumoniae. Kind of data set: Antibacterial activity against Klebsiella pneumoniae ATCC 700721 assessed as bacterial growth inhibition. The format is functional.

Take COLISTIN: in the data set on HEK293, the 50% cytotoxic concentration (CC50) was greater than 64 µM.
In the case of `C/C=C1\NC(=O)C(NC(=O)CCCCCCCCCCC)C(O)CNC(=O)C(C(O)CN)NC(=O)C(C(O)CN)NC(=O)[C@H](CCCNC(=N)N)NC[C@H](CC(C)C)NC(=O)[C@H](CCN)NC1=O` (stereo partly drawn), the outcome in the data set on Acinetobacter and in the data set with Klebsiella pneumoniae [3] was inactive. For the same compound, the result with Pseudomonas aeruginosa [1] and with Escherichia coli [2] was Active.
On to `C/C=C1\NC(=O)C(NC(=O)COc2ccc(/C=C/C(=O)OC(C)(C)C)cc2)C(O)CNC(=O)C(C(O)CN)NC(=O)C(C(O)CN)NC(=O)[C@H](CCCNC(=N)N)NC(=O)[C@H](CC(C)C)NC(=O)[C@H](CCN)NC1=O` (stereo partly drawn), for which the MIC in the data set on Pseudomonas aeruginosa [4] is 8 µg/mL (≈ 7.54 µM); in the data set on Pseudomonas aeruginosa [6] it was 4 µg/mL (≈ 3.77 µM); in the data set on Escherichia coli [8] it was 2 µg/mL (≈ 1.88 µM); with Klebsiella pneumoniae [9], greater than 256 µg/mL; in the data set on Klebsiella pneumoniae [10] it was greater than 256 µg/mL; with Pseudomonas aeruginosa [11] it was 128 µg/mL (≈ 121 µM). Besides, the MIC turned out to be 128 µg/mL (≈ 121 µM) in the data set on Acinetobacter baumannii [12], 2 µg/mL (≈ 1.88 µM) in the data set on Acinetobacter baumannii [13], 2 µg/mL (≈ 1.88 µM) in the data set with Klebsiella pneumoniae [14] and 2 µg/mL (≈ 1.88 µM) with Klebsiella pneumoniae [15]. Besides, the CC50 (with HepG2; in data set [7]) was greater than 64 µM each time. The logD in [5] worked out at 2.65.
With `C/C=C1\NC(=O)C(NC(=O)CCCCCCCCC)C(O)CNC(=O)C(C(O)CN)NC(=O)C(C(O)CN)NC(=O)[C@H](CCCNC(=N)N)NC(=O)[C@H](CC(C)C)NC(=O)[C@H](CCN)NC1=O` (stereo partly drawn), the MIC was 64 µg/mL (≈ 67 µM) in the data set with Pseudomonas aeruginosa [4]; 4 µg/mL (≈ 4.19 µM) in the data set on Pseudomonas aeruginosa [6]; 2 µg/mL (≈ 2.09 µM) with Escherichia coli [8]; greater than 256 µg/mL with Klebsiella pneumoniae [9]; greater than 256 µg/mL in the data set with Klebsiella pneumoniae [10]; 128 µg/mL (≈ 134 µM) in the data set on Pseudomonas aeruginosa [11]. The MIC with Acinetobacter baumannii [12] was greater than 256 µg/mL; in the data set on Acinetobacter baumannii [13], 2 µg/mL (≈ 2.09 µM); in the data set on Klebsiella pneumoniae [14] it was 1 µg/mL (≈ 1.05 µM); in the data set with Klebsiella pneumoniae [15], greater than 256 µg/mL. Besides, the CC50 (in the data set on HepG2; in data set [7]) was greater than 64 µM throughout. In data set [5], the logD is 3.756.
In the case of `C/C=C1\NC(=O)C(NC(=O)CCC/C=C\CCCCCC)C(O)CNC(=O)C(C(O)CN)NC(=O)C(C(O)CN)NC(=O)[C@H](CCCNC(=N)N)NC[C@H](CC(C)C)NC(=O)[C@H](CCN)NC1=O` (stereo partly drawn), the outcome in the data set with Acinetobacter and with Klebsiella pneumoniae [3] was inactive. The result in the data set with Pseudomonas aeruginosa [1] and in the data set on Escherichia coli [2] was Active.
Regarding `C/C=C1\NC(=O)C(NC(=O)CCCCCCCCC)C(O)CNC(=O)C(C(O)CN)NC(=O)C(C(O)CN)NC(=O)[C@H](CCCNC(=N)N)NC[C@H](CC(C)C)NC(=O)[C@H](CCN)NC1=O` (stereo partly drawn), the outcome in the data set with Acinetobacter and in the data set with Klebsiella pneumoniae [3] was inactive. Moreover, the result with Pseudomonas aeruginosa [1] and with Escherichia coli [2] was Active.
Regarding `C/C=C1\NC(=O)C(NC(=O)CCCCC/C=C\CCCCCC)C(O)CNC(=O)C(C(O)CN)NC(=O)C(C(O)CN)NC(=O)[C@H](CCCNC(=N)N)NC[C@H](CC(C)C)NC(=O)[C@H](CCN)NC1=O` (stereo partly drawn), the outcome with Acinetobacter and in the data set on Klebsiella pneumoniae [3] was inactive. For the same compound, the result with Pseudomonas aeruginosa [1] and with Escherichia coli [2] was Active.
As to `C/C=C1\NC(=O)C(NC(=O)CCCCCCCCC(=O)OCc2ccccc2)C(O)CNC(=O)C(C(O)CN)NC(=O)C(C(O)CN)NC(=O)[C@H](CCCNC(=N)N)NC(=O)[C@H](CC(C)C)NC(=O)[C@H](CCN)NC1=O` (stereo partly drawn), the MIC is 16 µg/mL (≈ 14.9 µM) in the data set with Pseudomonas aeruginosa [4]; 16 µg/mL (≈ 14.9 µM) with Pseudomonas aeruginosa [6]; 9 µg/mL (≈ 8.37 µM) with Escherichia coli [8]; 16 µg/mL (≈ 14.9 µM) in the data set with Klebsiella pneumoniae [9]; greater than 256 µg/mL in the data set with Klebsiella pneumoniae [10]; 256 µg/mL (≈ 238 µM) in the data set with Pseudomonas aeruginosa [11]. Moreover, the MIC with Acinetobacter baumannii [12] worked out at 128 µg/mL (≈ 119 µM); in the data set with Acinetobacter baumannii [13] it was 4 µg/mL (≈ 3.72 µM); with Klebsiella pneumoniae [14], 8 µg/mL (≈ 7.44 µM); in the data set with Klebsiella pneumoniae [15], 8 µg/mL (≈ 7.44 µM). For the same compound, the CC50 (in the data set with HepG2; in data set [7]) was greater than 64 µM each time.
In the case of `C/C=C1\NC(=O)C(NC(=O)c2cc3cc(Cl)ccc3o2)C(O)CNC(=O)C(C(O)CN)NC(=O)C(C(O)CN)NC(=O)[C@H](CCCNC(=N)N)NC(=O)[C@H](CC(C)C)NC(=O)[C@H](CCN)NC1=O` (stereo partly drawn), the MIC in the data set with Pseudomonas aeruginosa [4] was greater than 256 µg/mL; in the data set on Pseudomonas aeruginosa [6], 4 µg/mL (≈ 4.08 µM); in the data set on Escherichia coli [8], 2 µg/mL (≈ 2.04 µM); in the data set with Klebsiella pneumoniae [9], greater than 256 µg/mL; in the data set on Klebsiella pneumoniae [10], greater than 256 µg/mL; in the data set with Pseudomonas aeruginosa [11], greater than 256 µg/mL. For the same compound, the MIC with Acinetobacter baumannii [12] was determined as 256 µg/mL (≈ 261 µM); in the data set on Acinetobacter baumannii [13] it was 2 µg/mL (≈ 2.04 µM); with Klebsiella pneumoniae [14] it was 2 µg/mL (≈ 2.04 µM); in the data set with Klebsiella pneumoniae [15] it was 8 µg/mL (≈ 8.17 µM). For the same compound, the CC50 (with HepG2; in [7]) was greater than 64 µM in each case. The logD in data set [5] came out at 2.829.
Regarding `C/C=C1\NC(=O)C(NC(=O)CCc2nc(-c3ccc(OC)cc3)no2)C(O)CNC(=O)C(C(O)CN)NC(=O)C(C(O)CN)NC(=O)[C@H](CCCNC(=N)N)NC(=O)[C@H](CC(C)C)NC(=O)[C@H](CCN)NC1=O` (stereo partly drawn), the MIC is greater than 256 µg/mL with Pseudomonas aeruginosa [4]; 8 µg/mL (≈ 7.76 µM) with Pseudomonas aeruginosa [6]; 2 µg/mL (≈ 1.94 µM) with Escherichia coli [8]; greater than 256 µg/mL in the data set on Klebsiella pneumoniae [9]; greater than 256 µg/mL with Klebsiella pneumoniae [10]; greater than 256 µg/mL with Pseudomonas aeruginosa [11]. The MIC in the data set with Acinetobacter baumannii [12] is greater than 256 µg/mL; with Acinetobacter baumannii [13] it was 8 µg/mL (≈ 7.76 µM); in the data set with Klebsiella pneumoniae [14], 2 µg/mL (≈ 1.94 µM); in the data set on Klebsiella pneumoniae [15], 2 µg/mL (≈ 1.94 µM). Moreover, the CC50 (in the data set with HepG2; in [7]) was greater than 64 µM each time.
`C/C=C1\NC(=O)C(NC(=O)c2ccc(Oc3ccccc3CCCC)cc2)C(O)CNC(=O)C(C(O)CN)NC(=O)C(C(O)CN)NC(=O)[C@H](CCCNC(=N)N)NC(=O)[C@H](CC(C)C)NC(=O)[C@H](CCN)NC1=O` (stereo partly drawn): the MIC in the data set on Pseudomonas aeruginosa [4] was 64 µg/mL (≈ 60.8 µM); in the data set on Pseudomonas aeruginosa [6], 4 µg/mL (≈ 3.8 µM); in the data set with Escherichia coli [8], 2 µg/mL (≈ 1.9 µM); with Klebsiella pneumoniae [9] it was 4 µg/mL (≈ 3.8 µM); in the data set with Klebsiella pneumoniae [10], greater than 256 µg/mL; in the data set with Pseudomonas aeruginosa [11], 64 µg/mL (≈ 60.8 µM). Besides, the MIC in the data set with Acinetobacter baumannii [12] was 8 µg/mL (≈ 7.6 µM); in the data set with Acinetobacter baumannii [13] it was 2 µg/mL (≈ 1.9 µM); with Klebsiella pneumoniae [14] it was 4 µg/mL (≈ 3.8 µM); in the data set with Klebsiella pneumoniae [15] it was 4 µg/mL (≈ 3.8 µM). The CC50 (in the data set with HepG2; in data set [7]) was greater than 64 µM each time. In data set [5], the logD was 4.984.
